For one test, the target named is T1, P2X7 (Homo sapiens, UniProt Q99572).
T1 construct: expressed in transfected cells
T1 sequence (Q99572 1-595): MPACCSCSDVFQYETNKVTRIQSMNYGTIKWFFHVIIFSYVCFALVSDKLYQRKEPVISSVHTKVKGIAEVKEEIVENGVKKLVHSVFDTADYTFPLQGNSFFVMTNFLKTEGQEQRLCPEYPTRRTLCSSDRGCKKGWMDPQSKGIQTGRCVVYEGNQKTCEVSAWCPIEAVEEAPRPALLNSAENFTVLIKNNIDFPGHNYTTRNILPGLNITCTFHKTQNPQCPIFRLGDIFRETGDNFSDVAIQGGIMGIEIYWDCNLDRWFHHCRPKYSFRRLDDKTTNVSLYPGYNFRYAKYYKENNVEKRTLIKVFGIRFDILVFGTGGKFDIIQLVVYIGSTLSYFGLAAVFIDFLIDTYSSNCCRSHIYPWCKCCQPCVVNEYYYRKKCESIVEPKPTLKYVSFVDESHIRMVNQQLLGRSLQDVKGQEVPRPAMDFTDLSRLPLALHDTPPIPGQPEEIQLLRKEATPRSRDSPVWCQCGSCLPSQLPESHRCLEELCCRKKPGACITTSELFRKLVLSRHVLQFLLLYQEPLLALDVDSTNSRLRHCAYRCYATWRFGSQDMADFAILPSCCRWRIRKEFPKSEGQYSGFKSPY
Briefly: ATP-induced YO-PRO-1 dye uptake in HEK-hP2X7 cells. To be noted: HEK-hP2X7, 10 min pre-treatment, ATP 1 mM; read-out: IC50 value (95% CI). Type of test: cell-based. The method, then: HEK-hP2X7 or HEK-hP2X4 cells were plated at 2.5 × 10^4 cells per well (100 µL volume) the day before experiments into poly-D-lysine (Merck Millipore) coated 96-well plates (NUNC, Fisher Scientific #167-008). The membrane impermeant dye YO-PRO-1 iodide (Life Technologies, Fisher Scientific) was used at a final concentration of 2 µM in low divalent buffer (145 mM NaCl, 5 mM KCl, 0.2 mM CaCl2, 13 mM glucose, 10 mM HEPES, pH 7.3, osm 300–310). Media were removed from the plate, and 90 µL of YO-PRO-1 buffer was added per well. Plates were warmed to 37 °C for 5 min before recording. Data was acquired on a Flexstation 3 plate reader (Molecular Devices) using excitation wavelength 490 nm, emission wavelength 520 nm, and six reads per well (PMT medium). […] […] Pipette height was set to 80 µL and the rate of injection was 4.
YO-PRO-1 dye uptake assay data is plotted as a percentage of control where control responses are measured in the absence of plant extract. Cell viability data is plotted as a percentage of control or background-corrected fluorescence data. Concentration–response graphs were plotted using GraphPad Prism v6 with a non-linear regression fit (variable slope). IC50 values were generated from collated datasets from a minimum of three independent experiments. Statistical differences were determined by one-way ANOVA statistical tests performed using GraphPad Prism v6 with Dunnett’s multiple comparison post hoc test. Significance was taken as P ≤ 0.05.
We acquired a natural product library (Set IV) containing 419 compounds from NCI DTP and tested these on P2X7 responses using a YO-PRO-1 dye uptake in HEK293 cells stably expressing human P2X7 (HEK-hP2X7). […] This allowed us to assess for any immediate effect of the injected compound, and secondly, it allowed for any potential negative modulators to be pre-incubated with P2X7.

In a further test the target is T2, hP2X7 (Homo sapiens, UniProt Q99572).
T2 sequence (Q99572 1-595): T1 sequence (Q99572 1-595)
The conditions noted are these: electrophysiological recordings; read-out: IC50; cited from earlier work.

Turning to `Cc1cc(O)c2c(c1)C(=O)c1cc(O)cc(O)c1C2=O` [Emodin], the IC50 on P2X7 is 55.2 µM; on hP2X7 it was 3 µM.

These data come from PMC12062478, “Screening herbal and natural product libraries to aid discovery of novel allosteric modulators of human P2X7” (Purinergic Signalling, 2024).
